Assays:
[1] = tested on: Beet Armyworm (BAW) (Spodoptera exigua); assay: Bioassays on BAW, 128-well diet tray assay; assay type: in vivo; details: Spodoptera exigua, 168 h; 50 μg/cm^2 on artificial diet, second instar larvae, five to seven days, 25° C.; read-out: BAW Rating (percent mortality)
Experimental: (§1) Certain molecules disclosed in this document were tested against BAW, CEW and CL using procedures described in the following examples. In the reporting of the results, the “BAW & CEW & CL Rating Table” was used (See Table Section).
Bioassays on BAW (Spodoptera exigua)
Bioassays on BAW were conducted using a 128-well diet tray assay. One to five second instar BAW larvae were placed in each well (3 mL) of the diet tray that had been previously filled with 1 mL of artificial diet to which 50 μg/cm^2 of the test compound (dissolved in 50 μL of 90:10 acetone-water mixture) had been applied (to each of eight wells) and then allowed to dry. Trays were covered with a clear self-adhesive cover, and held at 25° C., 14:10 light-dark for five to seven days. Percent mortality was recorded for the larvae in each well; activity in the eight wells was then averaged. The results are indicated in the tables entitled “Table 3: Assay Results Part 1” and “Table 4: Assay Results Part 2” (See Table Section).

[2] = tested on: Cabbage Looper (CL) (Trichoplusia ni); assay: Bioassays on CL, 128-well diet tray assay; assay type: in vivo; details: 168 h, 50 μg/cm^2 on artificial diet, second instar larvae, five to seven days, 25° C., read-out: CL Rating (percent mortality)
Experimental: as §1
Bioassays on CL (Trichoplusia ni)
Bioassays on CL were conducted using a 128-well diet tray assay. One to five second instar CL larvae were placed in each well (3 mL) of the diet tray that had been previously filled with 1 mL of artificial diet to which 50 μg/cm^2 of the test compound (dissolved in 50 μL of 90:10 acetone-water mixture) had been applied (to each of eight wells) and then allowed to dry. Trays were covered with a clear self-adhesive cover, and held at 25° C., 14:10 light-dark for five to seven days. Percent mortality was recorded for the larvae in each well; activity in the eight wells was then averaged. The results are indicated in the table entitled “Table 4: Assay Results Part 2” (See Table Section).

Row | Compound | mortality at 50 µg/cm2 [1] | mortality at 50 µg/cm2 [2]
1 | O=C(NC1(C(=O)NC2CCSC2)CC1)c1ccc(/C=C/C(c2cc(Cl)c(Cl)c(Cl)c2)C(F)(F)F)cc1Br (centres unmarked) [FA19] | 50 to 100% | 50 to 100%
2 | Cc1cc(C(/C=C/c2ccc(C(=O)NC3(C(=O)NCC(F)(F)F)CC3)c(C(F)(F)F)c2)C(F)(F)F)cc(Cl)c1Cl (centres unmarked) [FA3] | 50 to 100% | 50 to 100%
3 | O=C(NC1(C(=O)NCC(F)(F)F)CC1)c1ccc(/C=C/C(c2cc(Br)cc(Br)c2)C(F)(F)F)cc1C(F)(F)F (centres unmarked) [Compound P1198] | 50 to 100% | 50 to 100%
4 | O=C(NC1(C(=S)NCC(F)(F)F)CC1)c1ccc(/C=C/C(c2cc(Cl)c(Cl)c(Cl)c2)C(F)(F)F)cc1Br (centres unmarked) [Compound P1009] | 50 to 100% | 50 to 100%
5 | O=C(NC1(C(=O)NCC(F)(F)F)CC1)c1ccc(/C=C/C(c2ccc(Cl)c([N+](=O)[O-])c2)C(F)(F)F)cc1C(F)(F)F (centres unmarked) [Compound P470] | 50 to 100% | 50 to 100%
6 | O=C(NC1(C(=O)NCC(F)(F)F)CC1)c1ccc(/C=C/C(c2ccc(Br)c(Br)c2)C(F)(F)F)cc1Br (centres unmarked) [Compound P423] | 50 to 100% | 50 to 100%
7 | CCNC(=O)C1(NC(=O)c2ccc(/C=C/C(c3cc(Cl)c(Cl)c(Cl)c3)C(F)(F)F)cc2C(F)(F)F)CC1 (centres unmarked) [Compound P1025] | 50 to 100% | 50 to 100%
8 | CC(F)(F)C(/C=C/c1ccc(C(=O)NC2(C(=O)NCC(F)(F)F)CC2)c(C(F)(F)F)c1)c1ccc(Cl)c(Cl)c1 (centres unmarked) [FA9] | 50 to 100% | 50 to 100%
9 | CCN(Cc1ccccc1)C(=O)C1(NC(=O)c2ccc(/C=C/C(c3cc(Cl)c(Cl)c(Cl)c3)C(F)(F)F)cc2Br)CC1 (centres unmarked) [FA45] | 50 to 100% | 50 to 100%
10 | O=C(NC1(C(=O)NCC(F)(F)F)CC1)c1ccc(/C=C/C(c2ccc(Cl)c(Cl)c2)C(F)(F)F)cc1Br (centres unmarked) [Compound P1093] | 50 to 100% | 50 to 100%
11 | O=C(NC1(C(=S)NCC(F)(F)F)CC1)c1ccc(/C=C/C(c2cc(Cl)c(Cl)c(Cl)c2)C(F)(F)F)cc1C(F)(F)F (centres unmarked) [Compound F6, (E)-4-(4,4,4-Trifluoro-3-(3,4,5-trichlorophenyl)but-1-enyl)-N-(1-(2,2,2-trifluoroethylcarbamothioyl)cyclopropyl)-2-(trifluoromethyl)benzamide] | 50 to 100% | 50 to 100%
12 | Cc1cc(C(/C=C/c2ccc(C(=O)NC3(C(=O)NCC(F)(F)F)CC3)c(Br)c2)C(F)(F)F)cc(C)c1F (centres unmarked) [Compound P333] | 50 to 100% | 50 to 100%
13 | COCCN(C)C(=O)C1(NC(=O)c2ccc(/C=C/C(c3cc(Cl)c(Cl)c(Cl)c3)C(F)(F)F)cc2Br)CC1 (centres unmarked) [FA43] | 50 to 100% | 50 to 100%
14 | N#CC1(NC(=O)c2ccc(/C=C/C(c3cc(Cl)c(Cl)c(Cl)c3)C(F)(F)F)cc2Br)CC1 (centres unmarked) [Compound F7, (E)-2-Bromo-N-(1-cyanocyclopropyl)-4-(4,4,4-trifluoro-3-(3,4,5-trichlorophenyl)but-1-en-1-yl)benzamide] | 50 to 100% | 50 to 100%
15 | O=C(NC1CC1(F)F)c1ccc(/C=C/C(c2cc(Cl)c(Cl)c(Cl)c2)C(F)(F)F)cc1Br (centres unmarked) [Compound P31] | 50 to 100% | 50 to 100%
16 | O=C(NC1(C(=O)Nc2cccc(C(F)(F)F)c2)CC1)c1ccc(/C=C/C(c2cc(Cl)c(Cl)c(Cl)c2)C(F)(F)F)cc1Br (centres unmarked) [FA37] | 0 to 50% | 0%
17 | COc1cccc(CNC(=O)C2(NC(=O)c3ccc(/C=C/C(c4cc(Cl)c(Cl)c(Cl)c4)C(F)(F)F)cc3Br)CC2)c1 (centres unmarked) [FA35] | 50 to 100% | 50 to 100%
18 | Cn1nc(C(F)(F)F)cc1NC(=O)C1(NC(=O)c2ccc(/C=C/C(c3cc(Cl)c(Cl)c(Cl)c3)C(F)(F)F)cc2Br)CC1 (centres unmarked) [FA48] | 50 to 100% | 50 to 100%
19 | O=C(NC1(C(=O)NCC(F)(F)F)CC1)c1ccc(/C=C/C(c2cc(Cl)c(Cl)cc2Cl)C(F)(F)F)cc1Br (centres unmarked) [Compound P108] | 50 to 100% | 50 to 100%
20 | Cc1cc(C(/C=C/c2ccc(C(=O)NC3(C(=O)NCC(F)(F)F)CC3)c(C(F)(F)F)c2)C(F)(F)F)ccc1Cl (centres unmarked) [Compound P245] | 50 to 100% | 50 to 100%
21 | Cc1cc(C(/C=C/c2ccc(C(=O)NC3(C(=O)NCC(F)(F)F)CC3)c(Br)c2)C(F)(F)F)ccc1F (centres unmarked) [Compound P693] | 50 to 100% | 50 to 100%
22 | COc1ccc(NC(=O)C2(NC(=O)c3ccc(/C=C/C(c4cc(Cl)c(Cl)c(Cl)c4)C(F)(F)F)cc3Br)CC2)cc1 (centres unmarked) [FA40] | 50 to 100% | 50 to 100%

Row | Compound | mortality at 50 µg/cm2 [1] | mortality at 50 µg/cm2 [2]
23 | O=C(NC1(C(=O)NCCC(F)(F)F)CC1)c1ccc(/C=C/C(c2cc(Cl)c(Cl)c(Cl)c2)C(F)(F)F)cc1C(F)(F)F (centres unmarked) [Compound P1035] | 50 to 100% | 50 to 100%
24 | O=C(NC1(C(=O)NCCC(F)(F)F)CC1)c1ccc(/C=C/C(c2cc(Br)cc(Br)c2)C(F)(F)F)cc1Br (centres unmarked) [Compound P1213] | 50 to 100% | 50 to 100%
25 | COc1ccc(CNC(=O)C2(NC(=O)c3ccc(/C=C/C(c4cc(Cl)c(Cl)c(Cl)c4)C(F)(F)F)cc3Br)CC2)cc1 (centres unmarked) [FA33] | 50 to 100% | 50 to 100%
26 | Cc1cc(C(/C=C/c2ccc(C(=O)NC3(C(=O)NCC(F)(F)F)CC3)c(C(F)(F)F)c2)C(F)(F)F)cc(C)c1Cl (centres unmarked) [FA14] | 50 to 100% | 50 to 100%
27 | CCc1cc(Cl)cc(C(/C=C/c2ccc(C(=O)NC3(C(=O)NCC(F)(F)F)CC3)c(Br)c2)C(F)(F)F)c1 (centres unmarked) [FA13] | 50 to 100% | 50 to 100%
28 | O=C(NC1(C(=O)Nc2cccc(Cl)c2)CC1)c1ccc(/C=C/C(c2cc(Cl)c(Cl)c(Cl)c2)C(F)(F)F)cc1Br (centres unmarked) [FA38] | 0 to 50% | 0 to 50%
29 | O=C(NC1(C(=O)NCC(F)(F)F)CC1)c1ccc(/C=C/C(c2cc(Cl)c(Cl)c(Cl)c2)C(F)(F)F)cc1Br (centres unmarked) [Compound F3] | 50 to 100% | 50 to 100%
30 | O=C(NC1(C(=O)NCCn2ccnc2)CC1)c1ccc(/C=C/C(c2cc(Cl)c(Cl)c(Cl)c2)C(F)(F)F)cc1Br (centres unmarked) [FA24] | 0 to 50% | 0%
31 | Cc1cc(C(/C=C/c2ccc(C(=O)NC3(C(=O)NCC(F)(F)F)CC3)c(Br)c2)C(F)(F)F)ccc1Cl (centres unmarked) [Compound P243] | 50 to 100% | 50 to 100%
32 | O=C(NC1(C(=O)NC2CCCOC2)CC1)c1ccc(/C=C/C(c2cc(Cl)c(Cl)c(Cl)c2)C(F)(F)F)cc1Br (centres unmarked) [FA47] | 50 to 100% | 50 to 100%
33 | COCCCNC(=O)C1(NC(=O)c2ccc(/C=C/C(c3cc(Cl)c(Cl)c(Cl)c3)C(F)(F)F)cc2Br)CC1 (centres unmarked) [FA18] | 50 to 100% | 50 to 100%
34 | O=C(NC1(C(=O)NCc2ccccc2Cl)CC1)c1ccc(/C=C/C(c2cc(Cl)c(Cl)c(Cl)c2)C(F)(F)F)cc1Br (centres unmarked) [FA29] | 50 to 100% | 50 to 100%
35 | O=C(NC1(C(=O)NCC(F)(F)F)CC1)c1ccc(/C=C/C(c2cc(Cl)cc(Br)c2)C(F)(F)F)cc1Br (centres unmarked) [Compound P378] | 50 to 100% | 50 to 100%
36 | N#Cc1cc(C(/C=C/c2ccc(C(=O)NC3(C(=O)NCC(F)(F)F)CC3)c(C(F)(F)F)c2)C(F)(F)F)ccc1F (centres unmarked) [Compound P515] | 50 to 100% | 50 to 100%
37 | O=C(NC1(C(=S)NCC(F)(F)F)CC1)c1ccc(/C=C/C(c2cc(Cl)c(Cl)c(Cl)c2)C(F)(F)F)cc1Cl (centres unmarked) [Compound P1010] | 50 to 100% | 50 to 100%
38 | O=C(NC1(C(=O)NCC(F)(F)F)CC1)c1ccc(/C=C/C(c2cc(Cl)c(Br)c(Cl)c2)C(F)(F)F)cc1Br (centres unmarked) [FA5] | 50 to 100% | 50 to 100%
39 | O=C(NC1(C(=O)NCC(F)(F)F)CC1)c1ccc(/C=C/C(c2cc(Cl)cc(Br)c2)C(F)(F)F)cc1C(F)(F)F (centres unmarked) [Compound P380] | 50 to 100% | 50 to 100%
40 | O=C(NC1(C(=O)NCC(F)(F)F)CC1)c1ccc(/C=C/C(c2cc(Cl)c(Cl)c(Cl)c2)C(F)(F)C(F)(F)F)cc1Br (centres unmarked) [Compound P1003] | 50 to 100% | 50 to 100%
41 | O=C(NC1(C(=O)NCC(F)(F)F)CC1)c1ccc(/C=C/C(c2cc(Br)c(Cl)c(Br)c2)C(F)(F)F)cc1Br (centres unmarked) [FA6] | 50 to 100% | 50 to 100%
42 | O=C(NC1(C(=O)NCC(F)(F)F)CC1)c1ccc(/C=C/C(c2cc(Br)cc(Br)c2)C(F)(F)F)cc1Br (centres unmarked) [Compound P1183] | 50 to 100% | 50 to 100%
43 | CCNC(=O)C1(NC(=O)c2ccc(/C=C/C(c3cc(Cl)c(Cl)c(Cl)c3)C(F)(F)F)cc2C)CC1 (centres unmarked) [Compound P1026] | 50 to 100% | 50 to 100%
